Results on three molecules are retold here after patent publication US10894777B2, “TG2 inhibitor piperazine compounds and uses thereof” (UNIVERSITY OF OTTAWA, priority 2016, dated 2021).

For one assay, the system named is NFκB. The assay can be described thus: NFκB subcellular distribution (cell fractionation, immunoblot), ECS cells. It counts as cell-based, human. To be noted: 8 day spheroids, 20 μM, 48 h. The protocol: In (A), it is shown that ECS cells have reduced NFκB-p65 levels. SCC-13 cells (40,000) were grown in spheroid medium in attached (monolayer) and non-attached (spheroid, ECS cells) conditions. Lysates were prepared after 10 d in culture for electrophoresis and detection of indicated epitopes. In (B). […] and SCC13-TG2-shRNA2 cells were grown in spheroid medium as monolayers. After 10 d in culture, lysates were collected for detection of TG2 and NFκB-p65. In (C), SCC-13 cells were electroporated with control-, NFκB-p65- or TG2-siRNA and then cultured as monolayers in spheroid medium. After 72 h extracts were prepared to assay TG2, NFκB-p65 and EMT markers. In (D), SCC-13 cells were electroporated with empty vector Control- or TG2-siRNA and plated in monolayer culture. The following day cells were fixed, permeabilized and incubated with antibodies specific for the indicated epitopes. […] In (E), an equal number of cell equivalents of total (T), nuclear (N), and cytosolic (C) extract, prepared from SCC13-Control-shRNA and SCC13-TG2-shRNA2 (TG2 knockdown) cells, was electrophoresed for immunoblot detection of NFκB, histone 3 (nuclear marker) and β-actin (cytoplasmic marker). […] In (F), total (T), nuclear (N), and cytosolic (C) extract was prepared from 8 day spheroids (ECS cells) treated with 0 or 20 μM NC9 for 48 h. […]
(In general: Immunoblotting shows a protein as a band on a membrane.)

In assay [1] the target is T1, TG2 (Homo sapiens, UniProt P21980).
T1 sequence (P21980 1-687): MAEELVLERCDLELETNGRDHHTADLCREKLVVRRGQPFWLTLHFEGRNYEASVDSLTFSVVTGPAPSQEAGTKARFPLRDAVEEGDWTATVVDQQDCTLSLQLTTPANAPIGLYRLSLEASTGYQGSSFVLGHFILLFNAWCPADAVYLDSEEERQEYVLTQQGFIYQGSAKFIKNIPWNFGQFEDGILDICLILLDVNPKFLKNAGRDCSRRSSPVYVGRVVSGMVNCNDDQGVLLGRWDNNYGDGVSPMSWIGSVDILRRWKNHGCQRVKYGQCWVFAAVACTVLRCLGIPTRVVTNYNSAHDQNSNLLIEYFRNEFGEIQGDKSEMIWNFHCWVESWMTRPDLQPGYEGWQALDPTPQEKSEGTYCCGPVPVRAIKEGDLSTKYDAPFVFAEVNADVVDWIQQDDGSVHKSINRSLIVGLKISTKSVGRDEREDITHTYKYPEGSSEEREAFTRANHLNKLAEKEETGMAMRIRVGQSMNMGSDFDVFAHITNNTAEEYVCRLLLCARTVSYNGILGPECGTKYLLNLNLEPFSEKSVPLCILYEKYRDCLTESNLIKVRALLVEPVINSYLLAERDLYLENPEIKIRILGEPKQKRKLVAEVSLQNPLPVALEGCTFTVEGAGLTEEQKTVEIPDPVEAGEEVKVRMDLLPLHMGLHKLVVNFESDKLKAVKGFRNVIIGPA
The assay can be described thus: In vitro GTP binding assay after inhibition of hTG2 (BODIPY GTP-γ-S). To be noted: inhibitor 2×KI, 30 min; 3 μM GTP-γ-S FL BODIPY. As to the method: In vitro GTP binding assay. GTP binding was measured using a method similar to that reported previously (McEwen, D. P. et al., Anal. Biochem. (2001), 291 (1): 109-117). […] The buffer was then exchanged to 100 mM MOPS (pH=7.0), 1 mM EGTA and 5 mM MgCl2 to remove calcium using a 10-kDa molecular weight cut off membrane. The fluorescent GTP analog was then added to give a final concentration of 3.0 μM and fluorescence was then measured on a microplate reader after 10 minutes of incubation (Ex/Em: 490/520 nm).

Assay [2] addresses T1, TG2. The assay can be described thus: Inhibition irreversibility (filtration, dilution, activity assay). It counts as biochemical. To be noted: after filtration over 10-kDa membrane and dilution. The text has this:
Inhibition irreversibility.

In assay [3] the target is T1, TG2. Briefly: Kinetic inactivation of purified recombinant human TG2, continuous spectrophotometric activity assay (Examples 3, 10). The arrangement: made in house. It counts as biochemical. The protocol:
Kinetic studies were carried out in vitro, using purified recombinant human TG2 (Roy, I. et al., Protein Expr. Purif. 87: 41-46, 2013) and a direct, continuous spectrophotometric activity assay (Leblanc, A. et al., Biochemistry 40: 8335-8342, 2001).
Kinetics. Kinetic runs were performed at 25° C. in 100 mM MOPS buffer (pH 7.0) containing 3 mM CaCl2 and 50 μM EDTA. […] Stock solutions of the substrate and inhibitors were prepared in DMF such that the final concentration of this co-solvent was constant at 10% v/v. Reactions were initiated with the addition of enzyme with an activity of approximately 0.05 U/mL. Kinetic evaluation was carried out by the method of Stone and Hofsteenge (Stone, S. R. and Hofsteenge, J., Biochem. J. 230: 497-502, 1985). […] Observed first-order rate constants of inactivation were determined from non-linear regression, to a mono-exponential model. These rate constants were in turn fit to equation 1 by non-linear regression, providing the kinetic parameters
Kinetic parameters were determined as described above.

Molecules are shown by their SMILES. Where two headings read alike, the source gives them in different places.

With `C=CC(=O)NCCCC[C@H](NC(=O)OCc1ccccc1)C(=O)NCCOCCOCCNS(=O)(=O)c1cccc2c(N(C)C)cccc12` [NC9], in the assay on NFκB, the “cytoplasmic/nuclear distribution of NFκB” value is “not altered”.
On to `C=CC(=O)NCCCC[C@H](NC(=O)OCc1ccccc1)C(=O)N1CCN(S(=O)(=O)c2cccc3c(N(C)C)cccc23)CC1` [VA4, (S)-benzyl(6-acrylamido-1-(4-((5-(dimethylamino)naphthalen-1-yl)sulfonyl)piperazin-1-yl)-1-oxohexan-2-yl)carbamate], for which the “GTP binding of hTG2 after incubation with inhibitor” value at TG2 [1] is “abolish GTP binding nearly completely”. Also, the “recovered activity of inhibited hTG2” value at TG2 [2] is “no recovered activity”.
In the case of `C=CC(=O)NCCCC[C@H](NC(=O)OCc1ccccc1)C(=O)N1CCN(C(=O)c2cc3ccc(O)cc3oc2=O)CC1` [VA5, (S)-Benzyl(6-acrylamido-1-(4-(7-hydroxy-2-oxo-2H-chromene-3-carbonyl)piperazin-1-yl)-1-oxohexan-2-yl)carbamate], the kinact on TG2 [3] (Table 4) was 0.0116 s⁻¹. For the same molecule, the kinact/KI was 130000 M⁻¹ min⁻¹ on TG2 [3] (read-out: kinact/KI (?M^−1min^−1), Table 1) and 165000 M⁻¹ min⁻¹ on TG2 [3] (read-out: kinact/Ki (μM^−1 min^−1), Table 4, for ^a no saturation observed, efficiency obtained from initial slope).

Usually kinact stands for the rate constant of inactivation at saturating inhibitor.
